One test is described as follows: Test in orange beverage. The note with it: 1 ppm; water, 7% sugar (8% sucrose elsewhere in the source), 0.1% citric acid, orange flavour 0.06%. The method, then: (§1) Samples were evaluated by expert tasters. Tasters were asked to describe the samples focusing on authentic taste, mouthfeel, fullness, salty-ness, salivation, umami, sweetness, juiciness, richness, long lastingness and fattiness.
Base is water, 7% sugar, 0.1% citric acid, proprietary orange flavour @ 0.06%.
(§2) Samples were evaluated by expert tasters. Tasters were asked to describe the samples focusing on authentic taste, mouthfeel, fullness, salty-ness, salivation, umami, sweetness, juiciness, richness, long lastingness and fattiness
Base is water, 7% sugar, 0.1% citric acid, proprietary orange flavour @ 0.06%
(§3) Samples were evaluated by expert tasters. Tasters were asked to describe the samples focusing on authentic taste, mouth feel, fullness, salivation, salty-ness, umami, sweetness, juiciness, richness, long lastingness and fattiness
Samples were evaluated by expert tasters. Tasters were asked to describe the samples focusing on authentic taste, mouthfeel, fullness, salivation, sweetness, juiciness, richness, long lastingness and fattiness
Comparison in an Orange Drink
Base: water, 8% sucrose, 0.1% citric acid, proprietary orange flavour @ 0.06%.

Another test can be described thus: Test in lemon beverage. The note with it: 1 ppm; water, 7% sucrose, 0.15% citric acid, lemon flavor. The method, then:
as §1
Basis water, 7% sucrose, 0.15% citric acid, proprietary lemon flavor
as §2

Test [1] in a line: Tasting in mango juice drink, 1% clear mango juice. The note with it: 8% sucrose, 0.1% citric acid, mango flavour 0.05%. The method, then: Comparison in a Mango Juice Drink
Base is 8% sucrose, 0.1% citric acid, 1% clear mango juice, and a proprietary mango flavour at 0.05%.
as §1
Base is water, 8% sucrose, 0.1% citric acid, 1% clear mango juice, proprietary mango flavour @ 0.05%
(§4) Samples were evaluated by expert tasters. Tasters were asked to describe the samples focusing on authentic taste, mouthfeel, fullness, salivation, salty-ness, umami, sweetness, juiciness, richness, long lastingness and fattiness.
Base is water, 8% sucrose, 0.1% citric acid, 1% clear mango juice, proprietary mango flavour @0.05%
as §2
Base is 8% sucrose, 0.1% citric acid, 1% clear mango juice, proprietary mango flavour @ 0.05%
as §3
Base is water, 8% sucrose, 0.1% citric acid, 1% clear mango juice, proprietary mango flavour @ 0.05%.
Test in a Mango Juice Drink

Test [2] is described as follows: Tasting in Maggi beef bouillon. The note with it: Maggi beef bouillon 1 tablet in 500 ml of hot water. The method, then:
(§5) Samples were prepared and evaluated by expert tasters. Tasters were asked to describe the samples focusing on authentic taste, mouthfeel, fullness, salty-ness, salivation, umami, sweetness, juiciness, richness, long lastingness and fattiness.
Comparison in Beef Bouillon
Base is Maggi beef bouillon 1 tablet in 500 ml of hot water
as §1, §4, §2, §3

Test [3] is described as follows: Test in chocolate flavoured drink. The note with it: water, 4% sucrose, chocolate flavour 0.03%. The method, then:
as §5
Test in Chocolate Flavoured Drink:
Base: Water, 4% sucrose, proprietary chocolate flavor at 0.03%
as §1
Test in Chocolate Flavoured Drink Flavoured
Base: Water, 4% sucrose, proprietary chocolate flavour @ 0.03%

Test [4] in a line: Tasting in vanilla milk 0.15% fat. The note with it: 4% sucrose, Vaniline 10 ppm + vanilla extract 0.03%. On the procedure:
as §5
Base: Milk 0.15% fat, sweetened with 4% sucrose by weight, flavoured with proprietary
Vaniline flavour @ 10 ppm+Vanilla ext. @ 0.03%
as §1
Comparison in a Vanilla Milk Drink
Vaniline @ 10 ppm+Vanilla extract @ 0.03%
Base: Milk 0.15% fat, sweetened with 4% sucrose by weight, flavoured with proprietary Vaniline @ 10 ppm+Vanilla extract @ 0.03%

Test [5] is described as follows: Test in pear flavoured drink. The note with it: water, 0.1% citric acid, pear flavour 0.025%. The method, then:
as §5
Test in Pear Flavoured Drink:
Base: water, 7% sugar, 0.1% citric acid, proprietary pear flavour at 0.025%
as §1
Comparison in a Pear Drink
Base is water, 8% sugar, 0.1% citric acid, proprietary pear flavour at 0.025%

Test [6] is described as follows: Test in peach flavoured drink. The settings on record: 1 ppm; water, 8% sugar, 0.1% citric acid, peach flavour 0.05%. The method, then:
as §5
Test in Peach Flavoured Drink:
Base is water, 8% sugar, 0.1% citric acid, and proprietary peach flavour at 0.05%
as §1
Comparison in a Peach Drink
Base is water, 8% sugar, 0.1% citric acid, proprietary peach flavour at 0.05%
as §4

The next test is described as follows: Tasting in soy sauce. The settings on record: 0.5 ppm in Kikkoman soy sauce low salt. The method, then:
(§6) The following formulations were prepared and tasted by trained panelists.
Salt level pure product between 5-40%
Salt level in application 0.3-1.0%
as §5
Test on Kikkoman Soy Sauce Low Salt
Base is Kikkoman soy sauce
Samples were prepared and evaluated by expert tasters. Tasters were asked to describe the samples focusing on authentic taste, mouthfeel, fullness, salivation, salty-ness, umami, sweetness, juiciness, richness, long lastingness and fattiness.

The nature of test [7]: Tasting in vanilla flavoured milk 3.0% fat. The settings on record: 4% sugar, vanillin 10 ppm, vanilla extract 0.03%. The method, then: Vanilla Flavoured Milk 3.0% Fat
In a 3% fat milk drink, sweetened with 4% sucrose by weight, flavoured with Vaniline @ 10 ppm and a Vanilla extract @ 0.03% C18:2-gaba, C18:1-ACOA and C18:1-glu were added at 0.5 or 2 ppm.
Samples were evaluated by expert tasters. Tasters were asked to describe the samples focusing on authentic taste, mouthfeel, fullness, salivation, sweetness, juiciness, richness, long lastingness and fattiness.
Base: Milk 3% fat, 4% sugar, vanillin 10 ppm, vanilla extract 0.03%

The nature of test [8]: Tasting in beef bouillon base. The note with it: 0.5% fat. On the procedure:
as §6
Beef Bouillon base 1.0% salt, 0.5% fat

A short description of test [9]: Tasting on fried potato snack product. The note with it: 35% fat, cheese seasoning. The method, then:
as §6
A snack product consisting of a fried potato base, containing 35% fat and flavored with cheese seasoning containing salt, MSG, dairy, organic acids, sugars, and a flavour formulation. The following compounds were added to the snack product at the indicated levels and the tasting results are reported: […]

Test [10] can be described thus: Tasting in Activa strawberry yoghurt. The note with it: 2 ppm, 13.5% sugar, 3.2% fat. From the text:
Activa Strawberry Yoghurt
In a Full fat, Activa strawberry flavoured yoghurt containing 13.5% sugar, 3.2% fat C18:2-gaba and C18:0-leu at 2 ppm

Test [11] is described as follows: Tasting in strawberry drink. The note with it: 0.5 ppm; 7% sucrose, 0.1% citric acid, strawberry flavour 0.015%. On the procedure:
as §5
Comparison in a Strawberry Drink
Base is 7% sucrose, 0.1% citric acid, and a proprietary strawberry flavour @ 0.015%
as §1
Base is water, 7% sucrose, 0.1% citric acid, proprietary strawberry flavour @ 0.015%
as §4
Test in a Strawberry Drink
Base is 7% sucrose, 0.1% citric acid, proprietary strawberry flavour @ 0.015%

The nature of test [12]: Tasting in strawberry flavoured sugar sweetened yoghurt. The note with it: 1.5% fat yoghurt, 8% sucrose, strawberry flavour 0.015%. The method, then:
Strawberry Flavoured Sugar Sweetened Yoghurt
In a 1.5% fat yoghurt base, sweetened with 8% sucrose by weight, flavoured with a proprietary strawberry flavour @ 0.015% several different N-acyl aminoacids were added.
as §5
Test in a Strawberry Yoghurt
Base: Yoghurt 1.5% fat yoghurt, 8% sucrose, proprietary strawberry flavour @ 0.015%
as §4

Setting [13] is: 1 ppm, 7% sugar (8% elsewhere in the source).

Entries after “also recorded” stand apart in the source; their conditions may differ.

In the case of `CCCCCC/C=C\CCCC(=O)NC(CCSC)C(=O)O` (stereo not shown) [C12:1-met], the tasting result in the test “Test in orange beverage” is reported as “nice orange, fresh”; in the test “Test in lemon beverage”, “fresh, slightly more citral”; in test [1] (1 ppm) it was “ripe full, more juicy, slightly metallic”; in [2] (1 ppm), “more salty”.

`CCCCCCCCCCCCCCCC(=O)NC(CCC(=O)O)C(=O)O` (stereo not shown) [C16:0-glu, N-palmitoyl-Glu]: the tasting result in test [3] (0.5 ppm) is “sweet, fatty cocoa, sulphur is enhanced, enhanced nib note”; in [4] (1 ppm), “ice cream like, sweet, very full”; in test [1] (1 ppm), “slightly more juicy impact”; in test [5] (0.5 ppm, 7% sugar), “fatty long lasting”; in [6] it was “fruity, nice juicy, sweet, soft peach skin”.

With “N-oleoyl 1-amino-cyclopropyl carboxylic acid [C18:1-ACCA]”, the tasting result in “Tasting in soy sauce” is given as “Strong upfront saltiness lingering, very strong saltiness”; in test [7] (0.5 ppm), “sweet, sugar-like, vanillic”.

In the case of `CCCCC/C=C\C/C=C\CCCCCCCC(=O)NC(CC(=O)O)C(=O)O` (stereo not shown) [C18:2-asp, N-linoleoyl-Asp], the tasting result in test [3] (2 ppm) was “cardboard, sweet diy”; in test [4] (2 ppm), “sweet full very natural vanilla”; in test [1] (1 ppm) it was “fatty, authentic fruit like, slight raspberry and pear note”; in test [5] (setting [13]) it was “very juicy, authentic, texture like pear 3D”; in test [6], “fatty skin like, slight apple note”.

On to `CCCCCCCC/C=C\CCCCCCCC(=O)NC(CCSC)C(=O)O` (stereo not shown) [C18:1-met], for which the tasting result is “Very salty and rich” in test [8] (0.5 PPM in beef bouillon base 1.0% salt); “Full bodied, long lasting, more mouthfeel” in test [8] (1.0 PPM in beef bouillon base 1.0% salt); “very juicy fresh, authentic, juicy” in the test “Test in orange beverage”; “fresh, less floral, very juicy, very authentic” in “Test in lemon beverage”; “Salty, aged cheese, succulent” in [9] (0.25 ppm on fried potato snack); “Increased cheese, creamy, salty and succulent” in test [9] (0.5 ppm on fried potato snack). The tasting result is “sweeter, juicy, salivating” in [1] (1 ppm); “very strong salty impact and aftertaste; also recorded: very strong salty impact and aftertaste, more fatty, mouthfeel, lingering full bodied” in test [2] (1 ppm); “more peppery, more salty” in test [2] (25 ppb); “more salty, more bouillon taste” in test [2] (50 ppb).

`CCCCCCCCCCCCCCCCCC(=O)NC(CC(C)C)C(=O)O` (stereo not shown) [C18:0-leu]: the tasting result in test [10] was “very juicy strawberry full, 3D, stronger strawberry, long lasting and creamy”; in [1] (2 ppm), “fruity strawberry like, ripe, long lasting”; in [11] it was “fruity authentic strawberry, stronger strawberry, ripe, long lasting, juicy”; in test [12] (2 ppm), “fruity authentic strawberry, stronger strawberry, ripe, long lasting, juicy, creamy yoghurt”; in [12] (2 ppm, listed as C18:0 leu), “Very juicy full, 3D, stronger nicer strawberry, long lasting nice creamy aftertaste”; in test [12] (5 ppm), “Very juicy full, 3D, stronger nicer strawberry, salivating long lasting”.

As to `CCCCCCCC/C=C\CCCCCCCC(=O)NC(CCC(=O)O)C(=O)O` (stereo not shown) [C18:1-glu], the tasting result in test [3] (0.5 ppm) is “full cocoa, nice sweet”; in test [4] (1 ppm), “full, beany, more sweet; also recorded: sweet vanillic”; in test [1] (1 ppm) it was “heavy, jammy, enhanced mango, more sulfury, sl umami”; in test [5] (0.5 ppm, 7% sugar), “nice fatty, juicy, long lasting”; in test [5] (setting [13]), “ripe, authentic pear, juicy, fatty skin like”; in test [11], “nice mouthfeel, more natural strawberry, full juicy”. Moreover, the tasting result is “ripe, much more juicy, long lasting, more fatty and sweet” in test [6]; “full, fatty, vanilla bean enhanced, whipped cream like” in test [7] (2 ppm).
